Assay results: PubChem BioAssay (NCI)
Several values for one entry are separate records, joined by “and”; a condition that tells them apart may be missing. Identical values can stand only once.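 All cell lines were grown in 96-well plates and treated with compound for 48 hours. The concentration for 50% growth inhibition is given as GI50. At the TGI there is no net growth.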

Columns and labels:
Assay in all cases: growth of human tumour cells (NCI), 48 h
U251 CNS = tested on: U251 CNS
SK-OV-3 ovarian = tested on: SK-OV-3 ovarian
BT-549 breast = tested on: BT-549 breast
NCI-H226 lung = tested on: NCI-H226 lung
M14 melanoma = tested on: M14 melanoma
NCI-H23 lung = tested on: NCI-H23 lung
HT29 colon = tested on: HT29 colon
COLO 205 colon = tested on: COLO 205 colon
SF-295 CNS = tested on: SF-295 CNS
MALME-3M melanoma = tested on: MALME-3M melanoma

| SMILES | GI50 (U251 CNS) | TGI (U251 CNS) [µM] | GI50 (SK-OV-3 ovarian) [µM] | TGI (SK-OV-3 ovarian) [µM] | GI50 (BT-549 breast) [µM] | TGI (BT-549 breast) [µM] | GI50 (NCI-H226 lung) [µM] | TGI (NCI-H226 lung) [µM] | GI50 (M14 melanoma) [µM] | TGI (M14 melanoma) [µM] | GI50 (NCI-H23 lung) [µM] | TGI (NCI-H23 lung) [µM] | GI50 (HT29 colon) | TGI (HT29 colon) | GI50 (COLO 205 colon) | TGI (COLO 205 colon) | GI50 (SF-295 CNS) [µM] | TGI (SF-295 CNS) [µM] | GI50 (MALME-3M melanoma) | TGI (MALME-3M melanoma) |
| --- | --- | --- | --- | --- | --- | --- | --- | --- | --- | --- | --- | --- | --- | --- | --- | --- | --- | --- | --- | --- |
| COc1cc(C(=O)/C=C/c2cccnc2Nc2ccc(Cl)cc2)cc(OC)c1OC | 1.25 µM | 2.54 | 1.72 | 3.29 | 1.5 | 2.85 | 1.16 | 2.45 | 1.75 | 3.22 | 1.58 | 3.24 | 1.43 µM | 3.25 µM | 1.83 µM | 3.47 µM | 1.93 | 3.97 | 1.91 µM | 3.65 µM |
| CCN(CC)Cc1cc(Nc2ccnc3ccc(OC)cc23)ccc1O | 4.46 µM | 17.9 | 7.15 | 34.5 | 9.53 | 27.9 | 4.15 | 21.7 | 2.88 | 10.1 | 7.46 | 26.5 | 1.81 µM | 4.45 µM | 1.63 µM | 3.67 µM | 2.39 | 7.64 | 3.85 µM | 15.7 µM |
| CCN(CC)CCOc1ccc2c(-c3ccccc3)c(-c3ccc(OC)cc3)c(=O)oc2c1 | 4.51 µM | 20.9 | 11 | 23 | 6.16 | 19.4 | 13.6 | 32.5 | 1.94 | 3.66 | 4.11 | 16.5 | 3 µM | 11.4 µM | 1.85 µM | 3.72 µM | 1.69 | 3.62 | 1.28 µM | 3.08 µM |
| N#Cc1c(-c2ccccc2)nc(SCC(O)CN2CCOCC2)nc1N1CCOCC1 (stereo not drawn) | 24.4 µM | > 100 | 1.87 | 12 | 7.26 | > 100 | 7.12 | > 100 | 50 | > 100 | 37.5 | > 100 | 15.9 µM | > 100 µM | 29.6 µM | 84.6 µM | 5.49 | > 100 | 4.73 µM | > 100 µM |
| Cc1ncnc2c1ccn2[C@@H]1C[C@H](Oc2cc(C(F)F)c(F)c3c2CNCC3)[C@@H](O)[C@H]1O | > 100 µM | > 100 | > 100 | > 100 | > 100 | > 100 | > 100 | > 100 | > 100 | > 100 | – | – | > 100 µM | > 100 µM | > 100 µM | > 100 µM | > 100 | > 100 | > 100 µM | > 100 µM |
| N#Cc1ncc(-c2ccc(C(F)(F)F)cc2)c(NC2CCCCCC2)n1 | – | – | > 100 | > 100 | 29.1 | > 100 | 21.8 | > 100 | 38.5 | > 100 | 6.48 | > 100 | 9.35 µM | > 100 µM | 13.2 µM | 62.1 µM | 27.5 | > 100 | > 100 µM | > 100 µM |
| Cc1c(Br)c(Br)c2c3c1nc(N1CCNCC1)n3CCC2 | 1.86 µM | 4.11 | 3.59 | 13.1 | 5.36 | 20.2 | 1.95 | 5.31 | 1.8 | 3.55 | 2.01 | 4.22 | 1.51 µM | 3.2 µM | 1.86 µM | 3.63 µM | 1.86 | 3.68 | 1.85 µM | 3.41 µM |
| CCN1C[C@@H](C)n2c(c(O)c3c(=O)n(Cc4ccc(F)c(Cl)c4)nc(C(=O)NC)c32)C1=O | – | – | 3.3 | 9.64 | 3.49 | > 100 | 3.31 | > 100 | 3.64 | 39.5 | 2.7 | 8.62 | 3.9 µM | 15.5 µM | 18.3 µM | 40.3 µM | 2.88 | > 100 | 2.75 µM | 8.07 µM |
| COc1cc2c3c(n(CCCNCCCCN)c(=O)c2cc1OC)-c1cc2c(cc1C3=O)OCO2 | 0.234 µM | 6.54 | 9.15 | > 46.6 | 2.43 | 16.6 | 1.6 | 7.44 | 9.19 | 27.6 | 1.63 | 10.7 | 4.57 µM | > 100 µM | 6.02 µM | > 46 µM | 0.169 | 16.5 | 1.66 µM | 7.32 µM |
| N=C1C(c2nc3ccccc3c(=O)[nH]2)=C(O)CN1c1cccc(Cl)c1 | 2.22 µM | > 50 | 5.55 | > 100 | 13.7 | > 100 | > 100 | > 100 | 5.26 | > 100 | 4.67 | > 100 | 0.845 µM | > 100 µM | 5.07 µM | > 100 µM | 3.23 | 17.8 | 1.03 µM | 10.7 µM |
| COc1ccc(/C=C/C(=O)OC2CC34CCNC35CC(OC5(OC)C2OC)c2ccc(OC)c(O)c24)cc1O (stereo not drawn) | 38.2 µM and > 100 µM | > 100 | – | > 100 | – | > 100 | – | > 100 | – | > 100 | – | > 100 | 19.7 µM and > 100 µM | 43.6 µM and > 100 µM | 18.4 µM and > 100 µM | 35.7 µM and > 100 µM | – | > 100 | 11.3 µM and > 100 µM | 50.9 µM and > 100 µM |
| O=C(Nc1nc2ccc(OC(F)(F)F)cc2s1)c1ccc(F)cc1 | 3.98 µM | > 100 | 2.6 | 8.44 | 3.76 | 54.6 | 2.81 | > 100 | 4.4 | > 100 | 2.9 | 8.73 | 3.88 µM | > 100 µM | 2.11 µM | 4.11 µM | 2.54 | 9.35 | 2.93 µM | 8.06 µM |
